Source: patent US20240417747A1 (priority 2021, published 2024)
“Also recorded” adds a separate entry of the source. Where a name gives a salt, the structure may show the parent alone. Read-outs that look alike come from different tables or passages of the source.

Columns and labels:
[1] = system: CLas-positive stems of Valencia sweet orange; conditions: branches soaked in DPI 25 μM, 48 h, vs water
[2] = system: C. sinensis protoplast cells; type: cell-based, Citrus sinensis
[3] = system: ROS related genes in C. sinensis protoplast cells; type: cell-based, Citrus sinensis; conditions: GA 5 mg/L, 1.8 mM H2O2, 6 h
[4] = system: HLB positive C. sinensis 'Valencia' trees; type: in vivo, Citrus sinensis; conditions: for H2O2 concentration in exudates of phloem-enriched bark tissues / cell death (ion leakage) in exudates of phloem-enriched bark tissues: weekly foliar spray, six weeks
[5] = system: HLB positive C. sinensis 'Valencia' and 'Vernia'; type: in vivo, Citrus sinensis
Arabidopsis = conditions: cited from earlier work
[6] = system: immortalized rat embryo fibroblasts; conditions: cited from earlier work
[7] = system: CLas-positive 5-year-old C. sinensis trees; type: in vivo, Citrus sinensis; conditions: 7 days post trunk injection of streptomycin
[8] = GA 5 mg/L foliar spray weekly for six weeks
[9] = GA 25 mg/L foliar spray weekly for six weeks
[10] = 6-year-old 'Valencia' and 'Vernia', eight months after GA application
[11] = GA 1,247 ppm foliar spray, 8 months after application
[12] = uric acid 1.8 mM, rutin 0.6 mM, listed as Uric acid

## c1ccc2c(c1)[I+]c1ccccc1-2 [DPI, diphenyleneiodonium]
[1]
  ROS levels (H2O2 concentration) in phloem-enriched bark tissues of CLas-positive stems: reduced

## C=C1C[C@]23C[C@@]1(O)CC[C@H]2[C@@]12C=C[C@H](O)[C@@](C)(C(=O)O1)[C@H]2[C@@H]3C(=O)O [GA, Gibberellic acid]
[2]; GA 5 mg/L, 24 h
  death of C. sinensis protoplast cells caused by 1.8 mM H2O2: suppresses
[3]
  expression of RbohD: inhibited
  expression of genes encoding H2O2 scavenging enzymes catalases, ascorbate peroxidases and glutathione peroxidases: induced
[4]; [8]
  H2O2 caused by CLas (phloem exudates): reduced
  ion leakage caused by CLas (phloem exudates): reduced
[4]; [9]
  H2O2 caused by CLas (phloem exudates): reduced
  ion leakage caused by CLas (phloem exudates): reduced
[4]; six weeks after foliar spray, vs water control
  growth as indicated by new flushes: promoted growth
[5]; [10]
  plant growth: canopy volume: significantly promoted
  plant growth: tree height: significantly promoted
  plant growth: trunk diameter: significantly promoted
[5]; [11]
  HLB disease symptoms: significantly reduced; also recorded: suppresses
  percentage of symptomatic leaves (ratio symptomatic leaves vs total leaves): significantly reduced
[5]; in vivo
  HLB disease incidence (infected trees): 100%

## OO [H2O2]
Arabidopsis
  concentration inhibiting growth of plants: 1 mM
[2]; H2O2 0.6 mmol/L or lower, 24 h
  cell death of C. sinensis protoplast cells: not
[2]; H2O2 1.8 mmol/L, 24 h
  cell death of C. sinensis protoplast cells: induced cell death
[2]; different concentrations of H2O2, 24 h
  viability of protoplast cells (FDA staining): kills
[6]
  concentration inducing necrosis: 700 µmol/L

## [H]/N=C(/N)N[C@H]1[C@H](O)[C@@H](O)[C@H](O[C@@H]2O[C@@H](C)[C@](O)(C=O)[C@H]2O[C@@H]2O[C@@H](CO)[C@H](O)[C@@H](O)[C@@H]2NC)[C@@H](N/C(N)=N\[H])[C@@H]1O [streptomycin, streptomycin sulfate]
[7]
  H2O2 content in the phloem tissues: significantly reduced
  ion leakage in the phloem tissues: significantly reduced
[7]; phloem tissues
  CLas titers: significantly reduced

## O=c1[nH]c(=O)c2[nH]c(=O)[nH]c2[nH]1 [uric acid]
[2]; addition of uric acid 0.2 mM (text cites FIG. 5C)
  H2O2 concentration: reduced
[2]; addition of uric acid 0.2 mM, 24 h
  cell death of protoplast cells caused by H2O2: reduced
[4]; six weeks after first weekly foliar spray, uric acid 1.8 mM, rutin 0.6 mM, GA
  HLB symptoms compared with before treatment: significantly reduced
[4]; uric acid 1.8 mM, rutin 0.6 mM
  H2O2 concentration in exudates of phloem-enriched bark tissues: reduced
  cell death (ion leakage) in exudates of phloem-enriched bark tissues: reduced
[4]; [12]
  H2O2 concentration in exudates of phloem-enriched bark tissues: reduce
  cell death (ion leakage) in exudates of phloem-enriched bark tissues: reduce
